Source: ChEMBL document CHEMBL4346735, “Discovery and pharmacological evaluation of indole derivatives as potent and selective RORγt inverse agonist for multiple autoimmune conditions” (Bioorg Med Chem Lett, 2019)
Active and inactive are the calls of the source. The rule behind the calls is not given here.

Key:
Mus musculus [1] = assay: Immunosuppressive activity in MOG (35 to 55 residues)/pertussis toxin-induced experimental allergic encephalomyelitis C57BL/6J mouse model assessed as reduction in disease severity score at 15 mg/kg, po bid measured at day 23 relative to dexamethasone; assay type: functional; details: 552 h
[2] = Oral bioavailability in Sprague-Dawley rat at 10mg/kg via gavage measured up to 24 hrs by LC-MS/MS analysis; assay type: ADME, organism-based; details: in vivo
[3] = Volume of distribution at steady state in Balb/c mouse at 3 mg/kg, iv; assay type: ADME, organism-based; details: in vivo, read-out: Vdss
[4] = Cmax in Balb/c mouse at 10 mg/kg, po; assay type: ADME, organism-based; design: dose 10 mg/kg, route oral; details: in vivo
[5] = AUC (0 to 24 hrs) in Sprague-Dawley rat at 3 mg/kg, iv administered as single dose measured up to 24 hrs by LC-MS/MS analysis; assay type: ADME, organism-based; design: time < 24 hr, dose 3 mg/kg, route intravenous; details: in vivo
[6] = AUC (0 to 24 hrs) in Sprague-Dawley rat at 10 mg/kg, po via gavage measured up to 24 hrs by LC-MS/MS analysis; assay type: ADME, organism-based; design: time < 24 hr, dose 10 mg/kg, route oral; details: in vivo
[7] = Half life in Sprague-Dawley rat at 3 mg/kg, iv administered as single dose measured up to 24 hrs by LC-MS/MS analysis; assay type: ADME, organism-based; details: in vivo
[8] = Half life in Sprague-Dawley rat at 10 mg/kg, po via gavage measured up to 24 hrs by LC-MS/MS analysis; assay type: ADME, organism-based; details: in vivo
[9] = Oral bioavailability in Balb/c mouse at 10mg/kg; assay type: ADME, organism-based; details: in vivo
[10] = Tmax in Sprague-Dawley rat at 10 mg/kg, po via gavage measured up to 24 hrs by LC-MS/MS analysis; assay type: ADME, organism-based; details: in vivo
[11] = AUC (0 to infinity) in Balb/c mouse at 10 mg/kg, po; assay type: ADME, organism-based; design: dose 10 mg/kg, time infinity, route oral; details: in vivo
[12] = Half life in Balb/c mouse at 10 mg/kg, po; assay type: ADME, organism-based; details: in vivo
[13] = Half life in Balb/c mouse at 3 mg/kg, iv; assay type: ADME, organism-based; details: in vivo
[14] = Cmax in Sprague-Dawley rat at 10 mg/kg, po via gavage measured up to 24 hrs by LC-MS/MS analysis; assay type: ADME, organism-based; design: dose 10 mg/kg, route oral; details: in vivo
[15] = AUC (0 to 24 hrs) in Balb/c mouse at 10 mg/kg, po; assay type: ADME, organism-based; design: time < 24 hr, dose 10 mg/kg, route oral; details: in vivo
[16] = AUC (0 to infinity) in Sprague-Dawley rat at 3 mg/kg, iv administered as single dose measured up to 24 hrs by LC-MS/MS analysis; assay type: ADME, organism-based; design: dose 3 mg/kg, time infinity, route intravenous; details: in vivo
[17] = Tmax in Balb/c mouse at 10 mg/kg, po; assay type: ADME, organism-based; details: in vivo
[18] = AUC (0 to 24 hrs) in Balb/c mouse at 3 mg/kg, iv; assay type: ADME, organism-based; design: time < 24 hr, dose 3 mg/kg, route intravenous; details: in vivo
[19] = Clearance in Sprague-Dawley rat at 3 mg/kg, iv administered as single dose measured up to 24 hrs by LC-MS/MS analysis; assay type: ADME, organism-based; details: in vivo
[20] = AUC (0 to infinity) in Balb/c mouse at 3 mg/kg, iv; assay type: ADME, organism-based; design: dose 3 mg/kg, route intravenous, time infinity; details: in vivo
[21] = Volume of distribution at steady state in Sprague-Dawley rat at 3 mg/kg, iv administered as single dose measured up to 24 hrs by LC-MS/MS analysis; assay type: ADME, organism-based; details: in vivo, read-out: Vdss
[22] = AUC (0 to infinity) in Sprague-Dawley rat at 10 mg/kg, po via gavage measured up to 24 hrs by LC-MS/MS analysis; assay type: ADME, organism-based; design: dose 10 mg/kg, time infinity, route oral; details: in vivo
[23] = Clearance in Balb/c mouse at 3 mg/kg, iv; assay type: ADME, organism-based; details: in vivo
[24] = AUC (0 to t) in Balb/c mouse at 3 mg/kg, iv administered as single dose by LC-MS/MS analysis; assay type: ADME, organism-based; details: in vivo
[25] = Half life in Balb/c mouse at 3 mg/kg, iv administered as single dose by LC-MS/MS analysis; assay type: ADME, organism-based; details: in vivo
[26] = target: T1, Nuclear receptor ROR-gamma (Homo sapiens, UniProt P51449); assay: Inverse agonist activity at GST-tagged RORgammat LBD (unknown origin) using fluorescein-D22 co-activator peptide as substrate incubated for 1 hr by TR-FRET assay
T1 sequence (P51449 whole entry): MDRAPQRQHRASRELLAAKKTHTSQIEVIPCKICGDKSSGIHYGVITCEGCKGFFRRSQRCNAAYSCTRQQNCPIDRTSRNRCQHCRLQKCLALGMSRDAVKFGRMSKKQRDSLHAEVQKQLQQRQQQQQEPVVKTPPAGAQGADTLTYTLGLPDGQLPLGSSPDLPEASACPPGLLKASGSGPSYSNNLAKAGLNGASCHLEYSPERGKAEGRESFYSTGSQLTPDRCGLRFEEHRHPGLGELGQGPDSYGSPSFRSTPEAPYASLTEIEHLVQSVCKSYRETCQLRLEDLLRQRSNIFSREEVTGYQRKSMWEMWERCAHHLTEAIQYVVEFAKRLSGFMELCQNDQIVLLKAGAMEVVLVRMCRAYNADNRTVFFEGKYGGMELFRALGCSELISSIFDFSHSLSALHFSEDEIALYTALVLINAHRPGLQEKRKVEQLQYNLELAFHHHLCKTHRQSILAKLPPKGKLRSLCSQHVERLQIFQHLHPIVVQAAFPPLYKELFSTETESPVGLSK

[27] = Oral bioavailability in Balb/c mouse at 10 mg/kg administered via gavage by LC-MS/MS analysis; assay type: ADME, organism-based; details: in vivo
[28] = Drug metabolism in mouse liver microsomes assessed as oxidation metabolic rate at 1 uM preincubated for 5 mins followed by NADPH addition after 30 mins by LC-MS/MS analysis; assay type: ADME, Microsome; details: 0.5 h
[29] = target: T1, Nuclear receptor ROR-gamma; assay: Transactivation of recombinant GAL4-DBD fused RORgammat LBD (unknown origin) expressed in HEK293T cells incubated for 18 to 24 hrs by dual-Glo luciferase assay; assay type: cell-based
[30] = Clearance in Balb/c mouse at 3 mg/kg, iv administered as single dose by LC-MS/MS analysis; assay type: ADME, organism-based; details: in vivo
[31] = Drug metabolism in rat liver microsomes assessed as oxidation metabolic rate at 1 uM preincubated for 5 mins followed by NADPH addition after 30 mins by LC-MS/MS analysis; assay type: ADME, Microsome; details: 0.5 h
[32] = Metabolic stability in rat hepatocytes assessed as parent compound remaining after 30 mins; assay type: ADME, cell-based, Hepatocyte; details: read-out: Stability
[33] = Drug metabolism in human pooled liver microsomes assessed as oxidation metabolic rate at 1 uM preincubated for 5 mins followed by NADPH addition after 30 mins by LC-MS/MS analysis; assay type: ADME, Microsome; details: 0.5 h
Mus musculus [34] = organism: Mus musculus; assay: Effect on non-RORgammat-dependent il6 gene expression in BALB/c mouse splenocytes measured after 24 hrs in presence of anti-CD3/anti-CD28; assay type: functional
Mus musculus [35] = organism: Mus musculus; assay: Effect on non-RORgammat-dependent TNFA gene expression in BALB/c mouse splenocytes measured after 24 hrs in presence of anti-CD3/anti-CD28; assay type: functional
Mus musculus [36] = organism: Mus musculus; assay: Effect on non-RORgammat-dependent ll4 gene expression in BALB/c mouse splenocytes measured after 24 hrs in presence of anti-CD3/anti-CD28; assay type: functional
[37] = target: T2, Nuclear receptor ROR-gamma (Mus musculus) (UniProt P51450); assay: Transrepression of RORgammat in Balb/c mouse splenocytes assessed as inhibition of anti-CD3/anti-CD28 stimulated IL-17 gene expression at 30 uM measured after 24 hrs in presence of anti-CD3/anti-CD28; assay type: cell-based
T2 sequence (whole entry): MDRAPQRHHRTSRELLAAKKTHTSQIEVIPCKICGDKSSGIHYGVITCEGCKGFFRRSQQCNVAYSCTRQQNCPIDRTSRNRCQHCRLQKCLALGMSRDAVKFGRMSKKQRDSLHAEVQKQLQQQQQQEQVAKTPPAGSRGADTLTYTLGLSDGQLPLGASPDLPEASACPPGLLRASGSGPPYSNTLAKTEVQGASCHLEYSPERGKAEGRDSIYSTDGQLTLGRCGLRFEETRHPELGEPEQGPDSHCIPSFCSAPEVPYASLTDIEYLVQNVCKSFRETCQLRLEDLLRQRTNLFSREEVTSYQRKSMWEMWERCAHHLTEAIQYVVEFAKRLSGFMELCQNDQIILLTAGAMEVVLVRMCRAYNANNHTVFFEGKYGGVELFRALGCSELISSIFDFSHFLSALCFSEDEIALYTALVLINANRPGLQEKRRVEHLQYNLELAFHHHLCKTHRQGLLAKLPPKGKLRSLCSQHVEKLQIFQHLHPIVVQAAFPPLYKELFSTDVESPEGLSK

Mus musculus [38] = assay: Immunosuppressive activity in MOG (35 to 55 residues)/pertussis toxin-induced experimental allergic encephalomyelitis C57BL/6J mouse model assessed as reduction in disease severity at 3 to 30 mg/kg, po bid measured at days 15-19; assay type: functional, organism-based
Mus musculus [39] = assay: Immunosuppressive activity in MOG (35 to 55 residues)/pertussis toxin-induced experimental allergic encephalomyelitis C57BL/6J mouse model assessed as delay in disease onset at 3 to 30 mg/kg, po bid; assay type: functional, organism-based
[40] = target: T2, Nuclear receptor ROR-gamma (Mus musculus); assay: Transrepression of RORgammat in Balb/c mouse splenocytes assessed as inhibition of anti-CD3/anti-CD28 stimulated IL-17 gene expression at 0.3 uM measured after 24 hrs in presence of anti-CD3/anti-CD28; assay type: cell-based
Mus musculus [41] = assay: Immunosuppressive activity in MOG (35 to 55 residues)/pertussis toxin-induced experimental allergic encephalomyelitis C57BL/6J mouse model assessed as decrease in ratio of Th17:Th1 at 3 to 30 mg/kg, po bid by intracellular staining method; assay type: functional, organism-based
Mus musculus [42] = organism: Mus musculus; assay: Effect on non-RORgammat-dependent IFNG gene expression in BALB/c mouse splenocytes measured after 24 hrs in presence of anti-CD3/anti-CD28; assay type: functional
Mus musculus [43] = assay: Immunosuppressive activity in MOG (35 to 55 residues)/pertussis toxin-induced experimental allergic encephalomyelitis C57BL/6J mouse model assessed as IFN-gamma production of CNS infiltrating CD4+ Th1 cells at 3 to 30 mg/kg, po bid by intracellular staining method; assay type: functional, organism-based
[44] = target: T2, Nuclear receptor ROR-gamma (Mus musculus); assay: Transrepression of RORgammat in Balb/c mouse splenocytes assessed as inhibition of anti-CD3/anti-CD28 stimulated IL-17 gene expression at 3 uM measured after 24 hrs in presence of anti-CD3/anti-CD28; assay type: cell-based
Mus musculus [45] = assay: Inhibition of anti-CD3-induced IL-17A level in Balb/c mouse plasma at 5 mg/kg, po treated prior to stimulation with anti-CD3 for 3 hrs relative to control; assay type: functional

C[S+](C)[O-] [DIMETHYL SULFOXIDE]
inhibition in vivo at 15 mg/kg (Mus musculus [1]): 15%

O=C([O-])c1ccc(-n2cc(C(=O)c3c(Cl)cccc3Cl)c3cccc(F)c32)cc1.[Na+]
bioavailability [2]: 50%
Vd [3]: 4.3 L/kg
Cmax [4]: 7 µM
AUC(0-t) at 24 h [5]: 3.69 µM·h
AUC(0-t) at 24 h [6]: 6.7 µM·h
half-life [7]: 208 min
half-life [8]: 152 min
bioavailability [9]: 91%
Tmax [10]: 30 min
AUC(0-inf) [11]: 12.7 µM·h
half-life [12]: 210 min
half-life [13]: 162 min
Cmax [14]: 3000 nM
AUC(0-t) at 24 h [15]: 12.6 µM·h
AUC(0-inf) [16]: 4.11 µM·h
Tmax [17]: 30 min
AUC(0-t) at 24 h [18]: 4.2 µM·h
clearance [19]: 28.9 mL/min/kg
AUC(0-inf) [20]: 4.6 µM·h
Vd [21]: 4.32 L/kg
AUC(0-inf) [22]: 7.59 µM·h
clearance [23]: 25.2 mL/min/kg

O=C(O)c1ccc(-n2nc(C(=O)c3c(Cl)cccc3Cl)c3ccccc32)cc1
AUC(0-t) [24]: 5.9 µM·h
half-life [25]: 84 min
IC50 [26]: 3.8 nM
bioavailability [27]: 29%
Drug metabolism [28]: < 0.04 nmol/min/mg
IC50 [29]: 29 nM
clearance [30]: 19.6 mL/min/kg
Drug metabolism [31]: 0.18 nmol/min/mg
remaining at 0.5 h [32]: 17%
Drug metabolism [33]: 0.07 nmol/min/mg

O=C(O)c1ccc(-n2cc(C(=O)c3c(Cl)cccc3Cl)c3cccc(F)c32)cc1
Activity (Mus musculus [34]): inactive
Activity (Mus musculus [35]): inactive
Activity (Mus musculus [36]): inactive
inhibition [37]: 76%
Activity (Mus musculus [38]): Active
Activity (Mus musculus [39]): Active
inhibition [40]: 2%
inhibition (Mus musculus [41]): Active
Activity (Mus musculus [42]): inactive
Activity (Mus musculus [43]): Active
inhibition [44]: 52%

C[C@@H]1C[C@H]2[C@@H]3CCC4=CC(=O)C=C[C@]4(C)[C@@]3(F)[C@@H](O)C[C@]2(C)[C@@]1(O)C(=O)CO [DEXAMETHASONE]
inhibition in vivo at 5 mg/kg (Mus musculus [45]): 51%
